The subject of series [1] is Microsporum canis. The series can be described thus: Antifungal activity in vitro, resazurin growth inhibition screen: Microsporum canis. It counts as cell-based. Particulars: Microsporum canis B68128; read-out: Inf. B pIC50 (converted). The method, boiled down:
(§1)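 Top in-test concentration 64 μM, serial 2- or 4-fold steps. Inoculum 10^3 cfu per well, RPMI-MOPS medium. Resazurin read-out normalised to no-drug and no-fungus controls.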

The test system of series [2] is Trichophyton mentagrophytes. As to the kind of experiment: Antifungal activity in vitro, resazurin growth inhibition screen: Trichophyton mentagrophytes. It counts as cell-based. As to conditions: Trichophyton mentagrophytes B70554; read-out: Inf. G pIC50 (converted). The method, boiled down:
as §1
In general terms: Resazurin is reduced to fluorescent resorufin, in cell work by metabolically active cells.

Series [3] has as its system Trichophyton rubrum. The series can be described thus: Antifungal activity in vitro, resazurin growth inhibition screen: Trichophyton rubrum. It counts as cell-based. As to conditions: Trichophyton rubrum B68183; read-out: Inf. C pIC50 (converted). The method, boiled down: as §1
Series [4] has as its system Scedosporium apiospermum. As to the kind of experiment: Antifungal activity in vitro, resazurin growth inhibition screen: Scedosporium apiospermum. As to conditions: Scedosporium apiospermum IHEM3817; read-out: Inf. H pIC50 (converted). Format: cell-based. The essentials: as §1
The subject of series [5] is Scedosporium prolificans. The series can be described thus: Antifungal activity in vitro, resazurin growth inhibition screen: Scedosporium prolificans. It counts as cell-based. As to conditions: Lomentospora prolificans; Scedosporium prolificans IHEM21157; read-out: Inf. I pIC50 (converted). The method, boiled down: as §1
The subject of series [6] is Sporothrix schenkii. The series can be described thus: Antifungal activity in vitro, resazurin growth inhibition screen: Sporothrix schenkii. It counts as cell-based. Particulars: Sporothrix schenkii B62482; read-out: Inf. A pIC50 (converted). The method, boiled down: as §1
The test system of series [7] is Aspergillus fumigatus. As to the kind of experiment: Antifungal activity in vitro, resazurin growth inhibition screen: Aspergillus fumigatus. It counts as cell-based. Particulars: Aspergillus fumigatus B42928; read-out: Inf. E pIC50 (converted). The essentials: as §1
Series [8] has as its system Candida parapsilosis. As to the kind of experiment: Antifungal activity in vitro, resazurin growth inhibition screen: Candida parapsilosis. As to conditions: Lodderomyces parapsilosis; Candida parapsilosis B66126; read-out: Inf. D pIC50 (converted). Format: cell-based. The essentials:
as §1

For series [9], the system named is Cryptococcus neoformans. The series can be described thus: Antifungal activity in vitro, resazurin growth inhibition screen: Cryptococcus neoformans. Format: cell-based. As to conditions: Cryptococcus neoformans B66663; read-out: Inf. F pIC50 (converted). The essentials: as §1
Series [10] has as its system Rhizopus oryzae. The series can be described thus: Antifungal activity in vitro, resazurin growth inhibition screen: Rhizopus oryzae. It counts as cell-based. As to conditions: Rhizopus arrhizus; Rhizopus oryzae IHEM5223; read-out: Inf. J pIC50 (converted). The essentials: as §1
Series [11] relates to Rhizomucor miehei. The series can be described thus: Antifungal activity in vitro, resazurin growth inhibition screen: Rhizomucor miehei. Format: cell-based. Particulars: Rhizomucor miehei IHEM13391; read-out: Inf. K pIC50 (converted). The essentials:
as §1

Results on 6 compounds are retold here after patent US9040524B2, “Antifungal 5,6-dihydro-4H-pyrrolo[1,2-a][1,4]-benzodiazepines and 6H-pyrrolo[1,2-a][1,4]benzodiazepines substituted with bicycle benzene derivatives” (JANSSEN PHARMACEUTICA NV, priority 2010, dated 2015).

With `O=C1CCCc2cc(C3=NCc4c(Cl)cccc4-n4cccc43)ccc21` [Compound 58, 6-(7-chloro-6H-pyrrolo[1,2-a][1,4]benzodiazepin-4-yl)-3,4-dihydro-1(2H)-naphthalenone], the melting point was 209.8 to 210.7 °C. Further, the IC50 in series [1] was 166 nM. The IC50 in series [2] is 324 nM. Besides, the IC50 in [3] was 204 nM. Besides, the IC50 in series [4] is 5890 nM. For the same compound, the IC50 in series [5] was 9330 nM. The IC50 in [6] is 2.14 µM. The IC50 in series [7] was 135 nM. Also, in [8], the IC50 was more than 64.6 µM. Besides, the IC50 in series [9] was 417 nM. The IC50 in series [10] is 49 µM. Besides, the IC50 in series [11] is 6.92 µM.
`O=C1OCc2ccc(C3=NCc4c(F)cccc4-n4cccc43)cc21` [Compound 63, 6-(7-fluoro-6H-pyrrolo[1,2-a][1,4]benzodiazepin-4-yl)-1(3H)-isobenzofuranone] showed a melting point of 224.6 to 246 °C. Also, the IC50 in [1] is 55000 nM. Besides, the IC50 in [2] was more than 64600 nM. Further, the IC50 in series [3] is 7410 nM. Besides, in [4], the IC50 was 933 nM. Moreover, the IC50 in series [5] is 1580 nM. The IC50 in series [6] is more than 64.6 µM. Further, in series [7], the IC50 is more than 64600 nM. Further, in series [8], the IC50 is more than 64.6 µM. The IC50 in series [9] was more than 64600 nM. Moreover, in series [10], the IC50 is more than 64.6 µM. Moreover, in series [11], the IC50 is more than 64.6 µM.
`O=C1OCc2cc(C3=NCc4c(Cl)cccc4-n4cccc43)ccc21` [Compound 65, 5-(7-chloro-6H-pyrrolo[1,2-a][1,4]benzodiazepin-4-yl)-1(3H)-isobenzofuranone]: the melting point is 251.2 to 253 °C. Also, in series [1], the IC50 was 2040 nM. For the same compound, the IC50 in series [2] was 1910 nM. Moreover, in [3], the IC50 is 1820 nM. Also, in series [4], the IC50 is 759 nM. The IC50 in series [5] was 589 nM. For the same compound, the IC50 in series [6] was 7.76 µM. Also, the IC50 in series [7] is 372 nM. The IC50 in series [8] is 5.13 µM. The IC50 in series [9] was 10200 nM. Also, in series [10], the IC50 was more than 64.6 µM. In series [11], the IC50 was more than 64.6 µM.
In turn, `FC1(F)CCc2cc(C3=NCc4c(Cl)cccc4-n4cccc43)ccc2O1` [Compound 69, 7-chloro-4-(2,2-difluoro-3,4-dihydro-2H-1-benzopyran-6-yl)-6H-pyrrolo[1,2-a]-[1,4]benzodiazepine] returned a melting point of 199.7 to 201.2 °C. Further, in series [1], the IC50 was 129 nM. Also, the IC50 in series [2] was 380 nM. The IC50 in series [3] was 123 nM. In addition, the IC50 in series [4] was 229 nM. Moreover, the IC50 in series [5] was 708 nM. For the same compound, the IC50 in series [6] was 1.05 µM. In addition, in series [7], the IC50 is 129 nM. For the same compound, the IC50 in series [8] was 0.708 µM. Moreover, the IC50 in series [9] was 95.5 nM. Moreover, in [10], the IC50 is 1.2 µM. Moreover, the IC50 in series [11] was 0.468 µM.
For `Cn1c(=O)oc2ccc(C3=NCc4c(Cl)cccc4-n4cccc43)cc21` [Compound 80, 5-(7-chloro-6H-pyrrolo[1,2-a][1,4]benzodiazepin-4-yl)-3-methyl-2(3H)-benzoxazolone], the melting point was 218.6 to 221 °C. Also, the IC50 in series [1] is 1580 nM. For the same compound, in [2], the IC50 was 5370 nM. In series [3], the IC50 is 1150 nM. Further, in [4], the IC50 is 56200 nM. Also, in series [5], the IC50 was 22400 nM. Also, the IC50 in series [6] was 9.12 µM. In series [7], the IC50 is 562 nM. Further, in [8], the IC50 is 22.4 µM. Moreover, the IC50 in [9] was more than 64600 nM. Besides, the IC50 in series [10] was more than 64.6 µM. Also, the IC50 in [11] is more than 64.6 µM.
Take `Fc1cc(Cl)c2c(c1)-n1cccc1C(c1ccc3c(c1)CCC3(F)F)=NC2` [Compound 88, 7-chloro-4-(1,1-difluoro-2,3-dihydro-1H-inden-5-yl)-9-fluoro-6H-pyrrolo[1,2-a]-[1,4]benzodiazepine]: the melting point lay within 170.2 to 171.8 °C. For the same compound, in series [1], the IC50 was 537 nM. In addition, the IC50 in series [2] was 871 nM. The IC50 in [3] is 447 nM. Also, in [4], the IC50 was 170 nM. In series [5], the IC50 is 2570 nM. For the same compound, the IC50 in series [6] is 53.7 µM. For the same compound, in series [7], the IC50 is 417 nM. The IC50 in series [8] is more than 64.6 µM. Further, the IC50 in series [9] was 407 nM. The IC50 in series [10] was more than 64.6 µM. Also, in [11], the IC50 is more than 64.6 µM.

One may read the melting point as the temperature of the solid-liquid transition.
